The source of these data is ChEMBL document CHEMBL1201862, “PubChem BioAssay data set” (2004).

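Each compound was tested at five concentrations against cells in 96-well plates for 48 hours. Here, GI50 denotes the concentration required for 50% inhibition of growth.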 Active and inactive are the calls of the source. Cut-off read from the data, not from the text of the source: active = GI50 up to about 1.1 µM and inactive = higher. Bounds are passed on as bounds.

Among the test systems are NCI-H23; OVCAR-3; SR; SF-268; CCRF-CEM; HT-29; SK-MEL-28; IGROV-1; OVCAR-4; NCI-H460; HCT-15; MDA-MB-435; SK-OV-3; SN12C; CAKI-1; A498; PC-3; U-251; DU-145; T47D.
Holding throughout (experiment): inhibition of tumour cell growth, NCI panel, 48 h

For `Nc1n[nH]c2nc3ccccc3nc12` [QUINOXALINE1], the GI50 was > 100 µM (inactive) with NCI-H23; 62.4 µM (inactive) in the test on OVCAR-3; 20 µM (inactive) in the test on SR; 66.4 µM (inactive) with SF-268; 34.4 µM (inactive) in the test with CCRF-CEM; 59.6 µM (inactive) in the test on HT-29. In addition, the GI50 is > 100 µM (inactive) with SK-MEL-28; 18.1 µM (inactive) in the test on IGROV-1; > 100 µM (inactive) with OVCAR-4; 84.7 µM (inactive) with NCI-H460; 75.2 µM in the test on HCT-15; > 100 µM (inactive) in the test on MDA-MB-435. Also, the GI50 is > 100 µM (inactive) with SK-OV-3; > 100 µM (inactive) in the test with SN12C; 31.9 µM (inactive) in the test on CAKI-1; 33.7 µM (inactive) in the test on A498; > 100 µM (inactive) with PC-3; > 100 µM (inactive) with U-251. Moreover, in the test on DU-145, the GI50 is 63.5 µM (inactive).

For `O=[N+]([O-])C(=C/c1ccccc1)/C(=C\c1ccccc1)[N+](=O)[O-]`, the GI50 in the test with NCI-H23 is 15.2 µM (inactive); in the test with OVCAR-3 it was 19.5 µM (inactive); with SF-268 it was 26.7 µM (inactive); in the test with CCRF-CEM, 1.71 µM (inactive); with HT-29, 17.6 µM (inactive); with SK-MEL-28 it was 15.9 µM (inactive). Also, the GI50 in the test with IGROV-1 was 16.8 µM (inactive); in the test on OVCAR-4 it was 21.3 µM (inactive); in the test on NCI-H460 it was 14.8 µM (inactive); in the test with MDA-MB-435, 16.5 µM (inactive); in the test with SK-OV-3 it was 20 µM (inactive); with SN12C, 23.4 µM (inactive). The GI50 was 23.8 µM (inactive) with T47D; 15.7 µM (inactive) with CAKI-1; 19.3 µM (inactive) in the test on PC-3; 15.6 µM (inactive) in the test with U-251; 16.1 µM (inactive) in the test on DU-145.

For `CC(C)OP(=O)(OC(C)C)/C(I)=N/Nc1ccc([N+](=O)[O-])cc1`, the GI50 in the test with NCI-H23, in the test on OVCAR-3, in the test with SR, in the test on SF-268, in the test with CCRF-CEM and with HT-29 was > 100 µM (inactive) each time. For the same compound, the GI50 in the test on SK-MEL-28 was > 100 µM (inactive); in the test with IGROV-1 it was > 100 µM (inactive); in the test on OVCAR-4, > 100 µM (inactive); in the test on NCI-H460, > 100 µM (inactive); in the test on HCT-15, more than 100 µM; in the test on SK-OV-3 it was > 100 µM (inactive). Also, the GI50 with SN12C, in the test with CAKI-1, with A498 and with U-251 was > 100 µM (inactive) throughout.

`Cc1c2cnccc2c(C)c2c1c1ccccc1n2CCCCCCNCc1ccccc1`: the GI50 in the test with NCI-H23 was 1.91 µM (inactive); with OVCAR-3, 1.87 µM (inactive); in the test with SF-268, 1.41 µM (inactive); with CCRF-CEM, 0.489 µM (active); in the test on HT-29, 1.36 µM (inactive); in the test on SK-MEL-28, 2.38 µM (inactive). Moreover, the GI50 was 1.8 µM (inactive) with IGROV-1; 0.787 µM (active) in the test on OVCAR-4; 0.538 µM (active) with NCI-H460; 1.31 µM in the test with HCT-15; 3.8 µM (inactive) in the test with SK-OV-3; 1.59 µM (inactive) with SN12C. Besides, the GI50 is 1.89 µM (inactive) with CAKI-1, 2.11 µM (inactive) with A498 and 2.05 µM (inactive) in the test with U-251.

`O=c1[nH]c2c(c3ccccc13)CCc1ccccc1-2`: the GI50 in the test with NCI-H23, in the test with OVCAR-3, with SR, in the test on SF-268, in the test with HT-29 and with SK-MEL-28 was > 100 µM (inactive) throughout. The GI50 is > 100 µM (inactive) in the test on IGROV-1; > 100 µM (inactive) in the test with OVCAR-4; more than 100 µM with HCT-15; > 100 µM (inactive) in the test on SK-OV-3; > 100 µM (inactive) in the test with SN12C; > 100 µM (inactive) in the test with CAKI-1. In the test on U-251, the GI50 is > 100 µM (inactive).

On to `O=C(CCN(CCO)CCO)Nc1ccc2c(c1)C(=O)c1ccc(NC(=O)CCN(CCO)CCO)cc1C2=O`, for which the GI50 was 38.7 µM (inactive) with NCI-H23; 16.1 µM (inactive) in the test with OVCAR-3; 14.8 µM (inactive) in the test with SR; 12.2 µM (inactive) in the test on SF-268; 6.52 µM (inactive) in the test with CCRF-CEM; 28.1 µM (inactive) in the test on HT-29. Also, the GI50 in the test with SK-MEL-28 is 15.1 µM (inactive); in the test with IGROV-1, 13.7 µM (inactive); in the test on OVCAR-4, 20 µM (inactive); in the test with NCI-H460, 10.8 µM (inactive); in the test with HCT-15, 6.47 µM; in the test with SK-OV-3, 14.9 µM (inactive). Further, the GI50 in the test with SN12C is 12.8 µM (inactive); in the test on CAKI-1, 5.56 µM (inactive); with A498, 9.86 µM (inactive); in the test with U-251, 22.3 µM (inactive).

With `O=C1C(Cl)N(c2ccccc2)C1c1c[nH]c2ccccc12` (stereo not given), the GI50 with NCI-H23, in the test with OVCAR-3, with SR, with SF-268, with CCRF-CEM and in the test with HT-29 was > 100 µM (inactive) each time. Further, the GI50 with SK-MEL-28, with IGROV-1, with OVCAR-4, in the test on NCI-H460, in the test with SK-OV-3 and in the test on SN12C was > 100 µM (inactive) in each case. In addition, in the test on U-251, the GI50 was > 100 µM (inactive).

For the compound `O=c1oc2ccccc2n1P(=O)(n1c(=O)oc2ccccc21)n1c(=O)oc2ccccc21`, the GI50 in the test with NCI-H23, with OVCAR-3, in the test on SR, in the test with SF-268, in the test with CCRF-CEM and in the test on HT-29 was > 100 µM (inactive) in each case. The GI50 in the test on SK-MEL-28, in the test with IGROV-1, in the test on OVCAR-4, in the test on NCI-H460, in the test with SK-OV-3 and in the test with SN12C was > 100 µM (inactive) in each case. Further, the GI50 in the test on CAKI-1, in the test on A498 and in the test with U-251 was > 100 µM (inactive) in each case.

For the compound `C=C(C(=O)C(=O)Oc1ccc(Cl)cc1)C(=O)c1ccc(C)cc1`, the GI50 in the test with NCI-H23 is > 100 µM (inactive); with OVCAR-3, 46.8 µM (inactive); in the test on SR it was 13.1 µM (inactive); with SF-268 it was 46.8 µM (inactive); in the test with CCRF-CEM, 22.8 µM (inactive); with HT-29 it was 31.1 µM (inactive). The GI50 in the test with SK-MEL-28 was 71.1 µM (inactive); in the test on IGROV-1 it was > 100 µM (inactive); with OVCAR-4 it was > 100 µM (inactive); in the test with NCI-H460, 83 µM (inactive); with HCT-15 it was 38.8 µM; in the test on SK-OV-3 it was > 100 µM (inactive). Further, the GI50 in the test on SN12C was 49.9 µM (inactive); in the test on CAKI-1, 94.4 µM (inactive); with A498 it was > 100 µM (inactive); in the test on U-251, 20.7 µM (inactive).

As for `c1ccc2cc3n[se]nc3cc2c1`, the GI50 with NCI-H23 is 39.7 µM (inactive); in the test on SF-268, > 100 µM (inactive); with CCRF-CEM, 32.5 µM (inactive); in the test with HT-29 it was > 100 µM (inactive); in the test with SK-MEL-28, > 100 µM (inactive); with IGROV-1, 48.8 µM (inactive). The GI50 was > 100 µM (inactive) in the test with OVCAR-4; more than 100 µM in the test on HCT-15; > 100 µM (inactive) in the test with SK-OV-3; 91.8 µM (inactive) in the test with SN12C; > 100 µM (inactive) in the test with CAKI-1; > 100 µM (inactive) with U-251.

Regarding `NC1(C(=O)O)CCCC1` [CYCLOLEUCINE], the GI50 in the test on NCI-H23 was > 625 µM (inactive); in the test with OVCAR-3 it was > 62.5 µM (inactive); in the test with SF-268, > 177 µM (inactive); in the test with CCRF-CEM, > 625 µM (inactive); in the test on HT-29 it was > 625 µM (inactive); in the test with SK-MEL-28, > 625 µM (inactive). Besides, the GI50 in the test on IGROV-1 was > 625 µM (inactive); in the test on OVCAR-4 it was > 625 µM (inactive); in the test with NCI-H460 it was > 625 µM (inactive); with HCT-15, more than 625 µM; in the test on SK-OV-3, > 625 µM (inactive); with SN12C, > 91 µM (inactive). Also, the GI50 in the test on CAKI-1 and in the test with U-251 was > 625 µM (inactive) throughout.

Regarding `C/C(=C1/N=C(c2cc([N+](=O)[O-])ccc2Cl)N(c2ccc(Br)cc2)C1=O)c1cc2ccccc2oc1=O`, the GI50 in the test on NCI-H23 was 38.3 µM (inactive); in the test on OVCAR-3 it was 49.2 µM (inactive); in the test with SR, 14.9 µM (inactive); in the test on SF-268 it was 39.6 µM (inactive); with CCRF-CEM it was 16.5 µM (inactive); in the test with HT-29, 42.1 µM (inactive). For the same compound, the GI50 with SK-MEL-28 was 60.8 µM (inactive); in the test with IGROV-1, 26.1 µM (inactive); in the test with OVCAR-4, 18.3 µM (inactive); with NCI-H460, 26.3 µM (inactive); in the test on HCT-15, 8.22 µM; with SK-OV-3, 90.4 µM (inactive). Further, the GI50 was 20.3 µM (inactive) with SN12C, 12.9 µM (inactive) in the test with CAKI-1, 20.7 µM (inactive) in the test on A498 and 48.3 µM (inactive) with U-251.

`O=C(CC12C3C4C1C1C2C3C41CC(=O)NO)NO` (stereo not given): the GI50 was 78.2 µM (inactive) in the test on NCI-H23; 34.3 µM (inactive) in the test on OVCAR-3; 49.3 µM (inactive) in the test with SR; 50 µM (inactive) in the test on SF-268; 26.7 µM (inactive) in the test on CCRF-CEM; 29.4 µM (inactive) in the test with HT-29. The GI50 is 60.4 µM (inactive) in the test on SK-MEL-28; 23.4 µM (inactive) in the test with NCI-H460; 44.2 µM with HCT-15; 41.2 µM (inactive) in the test with SN12C; 71.8 µM (inactive) with CAKI-1; 28.8 µM (inactive) in the test on A498. Also, in the test on U-251, the GI50 was 35.7 µM (inactive).
